Results taken from the NIST ThermoML archive (doi:10.1021/acs.jced.7b00201).

What was measured:
[1] = 100 kPa, Liquid; for viscosity: Falling or rolling sphere viscometry; for mass density: Vibrating tube method
[2] = xn = mol fraction of the nth substance listed; settings: 100 kPa, Liquid; for viscosity: Falling or rolling sphere viscometry; for mass density: Vibrating tube method

CCCCC1CCCCC1 [butylcyclohexane]
[1]
Settings	mass density [kg/m3]	viscosity [mPa·s]
293.15 K	799.34	1.305
298.15 K	795.59	1.202
303.15 K	791.84	1.112
308.15 K	788.07	1.033
313.15 K	784.3	0.963
318.15 K	780.52	0.901
323.15 K	776.74	0.844
328.15 K	772.93	0.794
333.15 K	769.13	0.749
338.15 K	765.3	0.708
343.15 K	761.47	0.67

CCCCC1CCCCC1 [butylcyclohexane] + OCC1CC1
[2], x2 = 0
Settings	mass density [kg/m3]	viscosity [mPa·s]
293.15 K	799.34	1.305
298.15 K	795.59	1.202
303.15 K	791.84	1.112
308.15 K	788.07	1.033
313.15 K	784.3	0.963
318.15 K	780.52	0.901
323.15 K	776.74	0.844
328.15 K	772.93	0.794
333.15 K	769.13	0.749
338.15 K	765.3	0.708
343.15 K	761.47	0.67

OCC1CC1 [cyclopropylmethanol]
[1]
Settings	mass density [kg/m3]	viscosity [mPa·s]
293.15 K	912.99	4.029
298.15 K	908.94	3.485
303.15 K	904.85	3.037
308.15 K	900.74	2.661
313.15 K	896.58	2.344
318.15 K	892.38	2.074
323.15 K	888.13	1.843
328.15 K	883.84	1.646
333.15 K	879.49	1.476
338.15 K	875.07	1.328
343.15 K	870.62	1.201

CCCCCCCCCCCC [dodecane]
[1]
Settings	mass density [kg/m3]	viscosity [mPa·s]
293.15 K	748.83	1.481
298.15 K	745.23	1.355
303.15 K	741.6	1.244
308.15 K	737.97	1.151
313.15 K	734.33	1.066
318.15 K	730.68	0.992
323.15 K	727.01	0.926
328.15 K	723.35	0.867
333.15 K	719.67	0.814
338.15 K	715.98	0.765
343.15 K	712.28	0.724

CCCCCCCCCCCC [dodecane] + CCCCC1CCCCC1
[2], x1 = 1
Settings	mass density [kg/m3]	viscosity [mPa·s]
293.15 K	748.83	1.481
298.15 K	745.23	1.355
303.15 K	741.6	1.244
308.15 K	737.97	1.151
313.15 K	734.33	1.066
318.15 K	730.68	0.992
323.15 K	727.01	0.926
328.15 K	723.35	0.867
333.15 K	719.67	0.814
338.15 K	715.98	0.765
343.15 K	712.28	0.724

CCCCCCCCCCCC [dodecane] + OCC1CC1
[2], x2 = 0
Settings	mass density [kg/m3]	viscosity [mPa·s]
293.15 K	748.83	1.481
298.15 K	745.23	1.355
303.15 K	741.6	1.244
308.15 K	737.97	1.151
313.15 K	734.33	1.066
318.15 K	730.68	0.992
323.15 K	727.01	0.926
328.15 K	723.35	0.867
333.15 K	719.67	0.814
338.15 K	715.98	0.765
343.15 K	712.28	0.724
